The source of these data is patent publication US20260356817A1, “AMINOPYRIMIDINE AND AMINOTRIAZINE DERIVATIVES AS MYC PROTEIN MODULATORS” (Sanford Burnham Prebys Medical Discovery Institute, priority 2022, published 2026).

The subject of one series is Myc. In words: Myc inhibition assay: Myc expression per cell by anti-Myc immunofluorescence, high-content imaging. The class given is cell-based, human (patient-derived medulloblastoma xenograft cells). In short, it runs like this:
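IC50 comes from high-content imaging of per-cell Myc immunostaining (DAPI-labelled nuclei) after 4 h compound exposure. Cells were freshly dissociated medulloblastoma PDX tumours, never passaged in vitro, grown in NSG mouse cerebellum, plated serum-free and recovered overnight before treatment.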
On the technique in general: Xenograft models place foreign cells or tissue in a host animal.

Series [1] deals with retinoblastoma (Rb) protein. In words: Rb protein expression in PDX511 medulloblastoma cells (immunofluorescence). The class given is cell-based, human (patient-derived).
Series [2] has as its system PDX511 medulloblastoma cells. In words: Cell viability of PDX511 medulloblastoma cells at 4 hours. The class given is cell-based, human (patient-derived).
Setting [3] is: Table 1, medulloblastoma PDX cells, 4 h, read-out: IC50 (Myc inhibition).
Where [4] appears, read: Table 2, medulloblastoma PDX cells, 4 h, read-out: MYC Inhibition IC50.

Where two headings read alike, the source gives them in different places.

Take `COc1cccc(-c2ccnc(N(C)c3ccccc3)n2)c1` [Compound 247, 4-(3-methoxyphenyl)-N-methyl-N-phenylpyrimidin-2-amine]: the IC50 in the series with Myc (setting [3]) and with Myc (setting [4]) was 1 to 10 µM throughout.
For the compound `COc1cccc(-c2ccnc(Nc3ccccc3OC)n2)c1` [Compound 248, N-(2-methoxyphenyl)-4-(3-methoxyphenyl)pyrimidin-2-amine], the IC50 in the series on Myc (setting [3]) and in the series on Myc (setting [4]) was 10 to 100 µM throughout.
On to `COc1cccc(-c2ccnc(Nc3cccc(Cl)c3)n2)c1` [Compound 249, N-(3-chlorophenyl)-4-(3-methoxyphenyl)pyrimidin-2-amine], for which the IC50 in the series with Myc (setting [3]) and in the series with Myc (setting [4]) was 1 to 10 µM throughout.
As for `COc1cccc(Nc2nccc(-c3cccc(OC)c3)n2)c1` [Compound 250, N,4-bis(3-methoxyphenyl)pyrimidin-2-amine], the concentration for half-maximal inhibition (IC50) in the series with Myc (setting [3]) and in the series on Myc (setting [4]) was 1 to 10 µM throughout.
`Oc1cc(-c2ccnc(Nc3ccccc3)n2)ccn1` [Compound 251, 4-(2-(phenylamino)pyrimidin-4-yl)pyridin-2-ol]: the half-inhibitory concentration (IC50) in the series with Myc (setting [3]) and with Myc (setting [4]) was 1 to 10 µM each time.
As for `COc1cc(-c2ccnc(Nc3ccccc3)n2)ccn1` [Compound 252, 4-(2-methoxypyridin-4-yl)-N-phenylpyrimidin-2-amine], the IC50 in the series on Myc (setting [3]) and with Myc (setting [4]) was 10 to 100 µM each time.
Regarding `COc1cccc(-c2ccnc(Nc3ccccc3)n2)c1` [Compound 253, 4-(3-methoxyphenyl)-N-phenylpyrimidin-2-amine], the 50% inhibitory concentration (IC50) with Myc (setting [3]) and with Myc (setting [4]) was 10 to 100 µM throughout.
As to `O=C(Nc1cccc(Nc2nccc(-c3ccc4[nH]cnc4c3)n2)c1)c1ccco1` [Compound 254, N-(3-((4-(1H-benzo[d]imidazol-5-yl)pyrimidin-2-yl)amino)phenyl)furan-2-carboxamide], the IC50 with Myc (setting [3]) and in the series on Myc (setting [4]) was < 0.2 µM in each case.
As to `CS(=O)(=O)Nc1cccc(Nc2nccc(-c3ccc4[nH]cnc4c3)n2)c1` [Compound 255, N-(3-((4-(1H-benzo[d]imidazol-5-yl)pyrimidin-2-yl)amino)phenyl)methanesulfonamide], the IC50 in the series with Myc (setting [3]) and in the series with Myc (setting [4]) was 1 to 10 µM in each case.
Regarding `CC(=O)c1cccc(Nc2nccc(-c3ccc4[nH]cnc4c3)n2)c1` [Compound 256, 1-(3-((4-(1H-benzo[d]imidazol-5-yl)pyrimidin-2-yl)amino)phenyl)ethan-1-one], the IC50 with Myc (setting [3]) and with Myc (setting [4]) was < 0.2 µM each time.
Turning to `CC(C)C(=O)Nc1cccc(Nc2nccc(-c3ccc4[nH]cnc4c3)n2)c1` [Compound 257, N-(3-((4-(1H-benzo[d]imidazol-5-yl)pyrimidin-2-yl)amino)phenyl)isobutyramide], the IC50 in the series on Myc (setting [3]) and in the series with Myc (setting [4]) was 0.2 to 1 µM each time.
On to `Fc1cc(Nc2nccc(-c3ccc4[nH]cnc4c3)n2)cc(F)c1F` [Compound 258, 4-(1H-benzo[d]imidazol-5-yl)-N-(3,4,5-trifluorophenyl)pyrimidin-2-amine], for which the half-inhibitory concentration (IC50) with Myc (setting [3]) and with Myc (setting [4]) was < 0.2 µM in each case.
Turning to `c1cc(Nc2nccc(-c3ccc4[nH]cnc4c3)n2)cc(-n2ccnn2)c1` [Compound 259, N-(3-(1H-1,2,3-triazol-1-yl)phenyl)-4-(1H-benzo[d]imidazol-5-yl)pyrimidin-2-amine], the concentration for half-maximal inhibition (IC50) in the series on Myc (setting [3]) and with Myc (setting [4]) was < 0.2 µM throughout.
Consider `O=S(=O)(c1cccc(Nc2nccc(-c3ccc4[nH]cnc4c3)n2)c1)C(F)(F)F` [Compound 260, 4-(1H-benzo[d]imidazol-5-yl)-N-(3-((trifluoromethyl)sulfonyl)phenyl)pyrimidin-2-amine], for which the IC50 with Myc (setting [3]) and in the series on Myc (setting [4]) was < 0.2 µM throughout.
In the case of `c1cc(Nc2nccc(-c3ccc4[nH]cnc4c3)n2)cc(-c2ccn[nH]2)c1` [Compound 261, N-(3-(1H-pyrazol-5-yl)phenyl)-4-(1H-benzo[d]imidazol-5-yl)pyrimidin-2-amine], the concentration for half-maximal inhibition (IC50) with Myc (setting [3]) and with Myc (setting [4]) was < 0.2 µM each time.
`CN(c1cccc(Nc2nccc(-c3ccc4[nH]cnc4c3)n2)c1)S(=O)(=O)c1ccccc1` [Compound 262, N-(3-((4-(1H-benzo[d]imidazol-5-yl)pyrimidin-2-yl)amino)phenyl)-N-methylbenzenesulfonamide]: the concentration for half-maximal inhibition (IC50) with Myc (setting [3]) and in the series with Myc (setting [4]) was 1 to 10 µM each time.
Take `O=C(Nc1ccccc1)c1cccc(Nc2nccc(-c3ccc4[nH]cnc4c3)n2)c1` [Compound 263, 3-((4-(1H-benzo[d]imidazol-5-yl)pyrimidin-2-yl)amino)-N-phenylbenzamide]: the half-inhibitory concentration (IC50) with Myc (setting [3]) and in the series on Myc (setting [4]) was < 0.2 µM throughout.
Regarding `c1cc(Nc2nccc(-c3ccc4[nH]cnc4c3)n2)cc(-c2cnco2)c1` [Compound 264, 4-(1H-benzo[d]imidazol-5-yl)-N-(3-(oxazol-5-yl)phenyl)pyrimidin-2-amine], the half-inhibitory concentration (IC50) in the series on Myc (setting [3]) and with Myc (setting [4]) was < 0.2 µM in each case.
For the compound `Cc1ccc(Nc2nccc(-c3ccc4[nH]cnc4c3)n2)cc1C(F)(F)F` [Compound 265, 4-(1H-benzo[d]imidazol-5-yl)-N-(4-methyl-3-(trifluoromethyl)phenyl)pyrimidin-2-amine], the concentration for half-maximal inhibition (IC50) in the series on Myc (setting [3]) and in the series on Myc (setting [4]) was < 0.2 µM each time.
Take `FC(F)(F)c1ccc(Nc2nccc(-c3ccc4[nH]cnc4c3)n2)cc1` [Compound 266, 4-(1H-benzo[d]imidazol-5-yl)-N-(4-(trifluoromethyl)phenyl)pyrimidin-2-amine]: the 50% inhibitory concentration (IC50) in the series on Myc (setting [3]) and in the series on Myc (setting [4]) was 1 to 10 µM throughout.
Take `c1cc(Nc2nccc(-c3ccc4[nH]cnc4c3)n2)cc(-c2nnn[nH]2)c1` [Compound 267, N-(3-(1H-tetrazol-5-yl)phenyl)-4-(1H-benzo[d]imidazol-5-yl)pyrimidin-2-amine]: the half-maximal inhibitory concentration (IC50) in the series on Myc (setting [3]) and in the series on Myc (setting [4]) was < 0.2 µM each time.
As to `c1cc(-c2ccc3[nH]cnc3c2)nc(Nc2ccc3cn[nH]c3c2)n1` [Compound 268, N-(4-(1H-benzo[d]imidazol-5-yl)pyrimidin-2-yl)-1H-indazol-6-amine], the IC50 with Myc (setting [3]) and in the series with Myc (setting [4]) was 0.2 to 1 µM throughout.
On to `c1cc(-c2ccc3[nH]cnc3c2)nc(Nc2ccc3sccc3c2)n1` [Compound 269, N-(benzo[b]thiophen-5-yl)-4-(1H-benzo[d]imidazol-5-yl)pyrimidin-2-amine], for which the IC50 in the series with Myc (setting [3]) and with Myc (setting [4]) was 0.2 to 1 µM in each case.
With `Fc1cccc(Nc2nccc(-c3ccn4nccc4n3)n2)c1` [Compound 270, N-(3-fluorophenyl)-4-(pyrazolo[1,5-a]pyrimidin-5-yl)pyrimidin-2-amine], the IC50 in the series with Myc (setting [3]) and with Myc (setting [4]) was 1 to 10 µM in each case.
In the case of `Fc1cccc(Nc2nccc(-c3ccc4ocnc4c3)n2)c1` [Compound 271, 4-(benzo[d]oxazol-5-yl)-N-(3-fluorophenyl)pyrimidin-2-amine], the half-inhibitory concentration (IC50) in the series on Myc (setting [3]) and in the series with Myc (setting [4]) was 1 to 10 µM throughout.
Consider `CCOC(=O)CCc1cccc(Nc2nccc(-c3ccc4nc[nH]c4c3)n2)c1` [Compound 272, ethyl 3-(3-((4-(1H-benzo[d]imidazol-6-yl)pyrimidin-2-yl)amino)phenyl)propanoate], for which the 50% inhibitory concentration (IC50) in the series on Myc (setting [3]) and in the series on Myc (setting [4]) was 0.2 to 1 µM in each case.
Take `Fc1cccc(Nc2nccc(-c3cnc4nccn4c3)n2)c1` [Compound 273, N-(3-fluorophenyl)-4-(imidazo[1,2-a]pyrimidin-6-yl)pyrimidin-2-amine]: the 50% inhibitory concentration (IC50) in the series on Myc (setting [3]) and in the series with Myc (setting [4]) was 1 to 10 µM throughout.
On to `Cc1cc(Cl)cc(Nc2nccc(-c3ccc4nc[nH]c4c3)n2)c1` [Compound 274, 4-(1H-benzo[d]imidazol-6-yl)-N-(3-chloro-5-methylphenyl)pyrimidin-2-amine], for which the IC50 in the series on Myc (setting [3]) and in the series with Myc (setting [4]) was < 0.2 µM each time.
For `Nc1cccc(Nc2nccc(-c3ccc4nc[nH]c4c3)n2)c1` [Compound 275, N1-(4-(1H-benzo[d]imidazol-6-yl)pyrimidin-2-yl)benzene-1,3-diamine], the 50% inhibitory concentration (IC50) with Myc (setting [3]) and in the series with Myc (setting [4]) was < 0.2 µM throughout.
For the compound `CC(C)(C)n1cc(Nc2nccc(-c3ccc4nc[nH]c4c3)n2)cn1` [Compound 276, 4-(1H-benzo[d]imidazol-6-yl)-N-(1-(tert-butyl)-1H-pyrazol-4-yl)pyrimidin-2-amine], the concentration for half-maximal inhibition (IC50) in the series on Myc (setting [3]) and in the series with Myc (setting [4]) was 0.2 to 1 µM each time.
With `CC(C)n1cnc2ccc(-c3ccnc(Nc4cccc(F)c4)n3)cc21` [Compound 277A, N-(3-fluorophenyl)-4-(1-isopropyl-1H-benzo[d]imidazol-6-yl)pyrimidin-2-amine], the half-maximal inhibitory concentration (IC50) with Myc (setting [3]) is < 0.2 µM.
Turning to `FC(F)c1cccc(Nc2cc(-c3ccc4[nH]cnc4c3)ccn2)n1` [Compound 278, N-(4-(1H-benzo[d]imidazol-5-yl)pyridin-2-yl)-6-(difluoromethyl)pyridin-2-amine], the 50% inhibitory concentration (IC50) in the series on Myc (setting [3]) and with Myc (setting [4]) was < 0.2 µM each time.
`Fc1cnc(Nc2cccc(C(F)(F)F)n2)cc1-c1ccc2nc[nH]c2c1` [Compound 279, 4-(1H-benzo[d]imidazol-6-yl)-5-fluoro-N-(6-(trifluoromethyl)pyridin-2-yl)pyridin-2-amine]: the IC50 with Myc (setting [3]) and in the series with Myc (setting [4]) was < 0.2 µM in each case.
With `FC(F)c1cccc(Nc2nccc(-c3ccc4nc[nH]c4c3)n2)c1` [Compound 280, 4-(1H-benzo[d]imidazol-5-yl)-N-(3-(difluoromethyl)phenyl)pyrimidin-2-amine], the IC50 with Myc (setting [3]) and in the series with Myc (setting [4]) was < 0.2 µM each time.
On to `FC(F)(F)c1cccc(Nc2cc(-c3ccc4nc[nH]c4c3)ccn2)n1` [Compound 281, N-(4-(1H-benzo[d]imidazol-6-yl)pyridin-2-yl)-6-(trifluoromethyl)pyridin-2-amine], for which the IC50 in the series on Myc (setting [3]) and in the series on Myc (setting [4]) was < 0.2 µM throughout.
`COc1ccc(Nc2nccc(-c3ccncc3)n2)cc1` [Compound A]: the “effect on expression of the retinoblastoma (Rb) protein” value in series [1] is “no effect”. In the series with Myc (read-out: Myc expression inhibition IC50, PDX511 medulloblastoma cells, 4 h (FIG. 2A)), the half-maximal inhibitory concentration (IC50) is 11.7 µM. The “effect on cell viability” value in series [2] is “no effect”.

As usually defined, the IC50 is the point on the concentration scale where inhibition reaches its midpoint.
